Converted amounts (≈) assume the structure as drawn.
Details: buffer; pH 7.4; 200.0 µM

SMILES | solubility kinetic [µg/mL]
COC(=O)c1ccsc1NC(=O)CN1CCN(c2ncccn2)CC1 | 4.1 (≈ 11.3 µM)
CC(CN1CCN(C)CC1)OC(=O)c1cccc(F)c1.Cl (centres undefined) | > 47.5
CCCc1cc(C(=O)N2CCCN(C)CC2)cs1 | > 40
O=C(Cc1ccccc1)Nc1nc(-c2ccc(F)c(F)c2)cs1 | 0.4 (≈ 1.21 µM)
O=C(OCC(=O)c1ccc[nH]1)c1ccc(F)c(S(=O)(=O)N2CCOCC2)c1 | 7.8 (≈ 19.7 µM)
Cc1ccc2[nH]c(C(=O)O)c(NC(=O)[C@@H]3C[C@@H]3c3ccccc3)c2c1 | > 50.2
CC(C)CNS(=O)(=O)c1cc2c3c(c1)CC(=O)N3CCC2 | 45.8 (≈ 149 µM)
COc1cccc(CNC(=O)CCN2C(=S)NC(C)(C)CC2C)c1 (centres undefined) | > 52.4
CC(=O)Nc1ccc(S(=O)(=O)NC(C)c2ccncc2)cc1 (centres undefined) | > 47.9
Cc1cc(C(=O)CN2C(=O)NC(CCS(C)(=O)=O)C2=O)c(C)n1C1CC1 (centres undefined) | 48.3 (≈ 127 µM)
CCOc1ccccc1N(C)C(=O)c1cn(C)c(=O)c2ccccc12 | 48.1 (≈ 143 µM)
C/C(=C/C#N)Nc1ccc(C)cc1 | > 25.8
COC(=O)CN1C(=O)COc2ccc(S(=O)(=O)NCc3ccccc3)cc21 | 58.3 (≈ 149 µM)
CCOc1cc(CNc2ccc(N3CCCC3)cc2)cc(Cl)c1OC | < 0.4
Cc1ccc(N(CC(=O)N2CCCC2)S(C)(=O)=O)cc1C | > 46.6
Cc1ccc(C(=O)N2CCN(c3ncccn3)CC2)cc1 | > 42.4
OCCC1CN(C2CCC2)CCN1Cc1ccc(F)c(F)c1 (centres undefined) | 43 (≈ 139 µM)
O=C(Nc1c(O)c2ccccc2[nH]c1=O)c1ccco1 | > 40.5
Cc1cccc(OCC(=O)Nc2ccc(NC(=O)c3ccco3)c(C)c2)c1 | 4.4 (≈ 12.1 µM)
Cn1c(COc2ccccc2O)[n+](C)c2ccccc21.[Br-] | > 52.4

SMILES | solubility kinetic [µg/mL]
N#Cc1ccc(OCC(=O)Nc2ccncc2)cc1 | 36 (≈ 142 µM)
O=C(O)c1ccc(NC(=O)c2ccccc2NC(=O)c2cccc(F)c2)cc1 | > 56.8
CC1CN(C(=O)CCNC(=O)c2ccccc2Cl)CC(C)O1 (centres undefined) | > 48.7
O=[N+]([O-])c1ccc(O)c([N+](=O)[O-])c1 | > 27.6
Cc1nc(C)c(-c2csc(Nc3ccc(O)cc3C)n2)s1 | < 0.2
COc1cccc(NC(=O)c2cnc(SC)nc2)c1 | 14.3 (≈ 51.9 µM)
CC1Oc2ccccc2N(CC(=O)NC2CCCC2)C1=O (centres undefined) | > 43.3
Cc1nn(C)c(C)c1NS(=O)(=O)c1ccccc1Cl | > 45
CCCOC1CCCN(Cc2nc(-c3cnccn3)no2)C1 (centres undefined) | 41.3 (≈ 136 µM)
COc1cccc(CNc2cc(C)ccn2)c1O | > 36.6
O=C(CSc1ccccn1)Nc1ccc(F)c([N+](=O)[O-])c1 | 43.5 (≈ 142 µM)
Cc1ccc(-c2nc3cc(N)ccc3o2)cc1Br | 0.3 (≈ 0.99 µM)
N#Cc1ccccc1NC(=O)Nc1ccccc1 | > 35.6
O=C(Cc1cccs1)N1CCN(c2cccc(Cl)c2)CC1 | 42.9 (≈ 134 µM)
O=C(COc1ccc(Br)cc1F)NCC1(N2CCCCC2)CCCCC1 | > 64.1
COC(=O)/C=C/c1c(C)nc(NCc2ccccc2)nc1Cl | > 47.7
COc1ccc(CCNc2ccc(S(N)(=O)=O)cn2)cc1 | 42.8 (≈ 139 µM)
O=C(O)COCC(=O)Nc1ccc(OCCc2ccccc2)cc1 | 45.4 (≈ 138 µM)
CCCOP(=O)(c1ccc(N(C)C)cc1)C(O)c1cc(OC)ccc1OC (centres undefined) | > 59
O=C(NCc1ccccc1Cl)C1CCN(C(=O)c2ccco2)CC1 | > 52

SMILES | solubility kinetic [µg/mL]
CC(C)(C)OC(=O)NCCNC(=O)c1cccs1 | > 40.6
COc1ccc(NC(=O)c2oc3ccccc3c2C)cn1 | 4 (≈ 14.2 µM)
COc1cc2c(C(=O)NCCN(C)C)cn(CC(C)C)c(=O)c2cc1OC | > 56.3
CC(Nc1ccc2c(c1)OCCO2)C(=O)N1c2ccccc2CC1C (centres undefined) | > 50.8
Cc1cc(C(=O)O)ccc1NCc1ccncc1 | > 36.3
O=C(CSc1cccc[n+]1[O-])NCCCc1ccccc1 | > 45.4
Cc1c(O)nc(SC2CC(=O)N(c3cc(Cl)cc(Cl)c3)C2=O)[nH]c1=O (centres undefined) | > 60
COc1ccc(-c2cc(C(=O)N3CCCCC3)c3ccccc3n2)cc1 | 33.5 (≈ 96.7 µM)
CCCn1c2c(c(=N)c3c1CCC3)CCC2.I | > 51.6
CC(CCc1ccccc1)NC(=O)C(=O)c1c[nH]c2ccccc12 (centres undefined) | 0.9 (≈ 2.81 µM)
CC(=O)O.O=S(=O)(Cc1ccccc1)N1CCNCC1 | 34.3
COc1cccc(NC(=O)C2COc3ccccc3O2)c1 (centres undefined) | > 42.8
COc1cccc(NC(=O)C2=COCCO2)c1 | > 35.3
CN(Cc1c(F)cccc1Cl)C(=O)CNC(=O)c1cccs1 | > 51.1
CC(CCc1ccccc1)NS(=O)(=O)c1ccccc1F (centres undefined) | 39 (≈ 127 µM)
Cc1c(C(=O)OCC(=O)N(C)Cc2ccccc2)oc2ccccc12 | 23.3 (≈ 69.1 µM)
O=C(COC(=O)CCSc1ccccc1)NCc1ccccc1 | > 49.4
Cc1ccsc1/C=C(\CC(=O)O)c1nc2ccccc2o1 | > 44.9
CC(=O)c1c(C)[nH]c(C(=O)N2CCCC(C)C2)c1C (centres undefined) | > 39.4

Reference: PubChem BioAssay AID1996
